Source: patent US9988400B2 (Genentech, Inc., priority 2013, dated 2018)

Molecular target: T1, HEK cells stably transfected with tetracycline inducible hNR1 and hNR2A (Homo sapiens, UniProt Q05586+Q12879)
T1 construct: expressed in transfected cells; host or cells: HEK cells, stably transfected, tetracycline/doxycycline inducible
Test: Assay 1: Cell-Based Assay, cytosolic calcium response to positive allosteric modulators (with 30 μM glycine and 300 nM L-glutamate, EC30)
Conditions: for EC50: cytosolic calcium response, with 30 μM glycine and 300 nM L-glutamate (EC30), — = no plateau was reached; for Max %: responses scaled relative to 100 μM L-glutamate maximal response (100%) and 0 μM L-glutamate (0%)
Outline: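 Cells induced 24 h with 7.5 μg mL^−1 doxycycline plus 500 μM (+)-ketamine, loaded 60 min at 37 °C with calcium dye in Mg-free HBSS (1.8 mM Ca, probenecid, 10 μM (+)-ketamine, pH 7.15). Peak RFU over 5 min after compound addition, scaled to 100 μM L-glutamate (100%) and 0 μM (0%); four-parameter Hill fit for EC50, max % if no plateau.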

T1 sequence (Q12879 23-1464, other chains not shown): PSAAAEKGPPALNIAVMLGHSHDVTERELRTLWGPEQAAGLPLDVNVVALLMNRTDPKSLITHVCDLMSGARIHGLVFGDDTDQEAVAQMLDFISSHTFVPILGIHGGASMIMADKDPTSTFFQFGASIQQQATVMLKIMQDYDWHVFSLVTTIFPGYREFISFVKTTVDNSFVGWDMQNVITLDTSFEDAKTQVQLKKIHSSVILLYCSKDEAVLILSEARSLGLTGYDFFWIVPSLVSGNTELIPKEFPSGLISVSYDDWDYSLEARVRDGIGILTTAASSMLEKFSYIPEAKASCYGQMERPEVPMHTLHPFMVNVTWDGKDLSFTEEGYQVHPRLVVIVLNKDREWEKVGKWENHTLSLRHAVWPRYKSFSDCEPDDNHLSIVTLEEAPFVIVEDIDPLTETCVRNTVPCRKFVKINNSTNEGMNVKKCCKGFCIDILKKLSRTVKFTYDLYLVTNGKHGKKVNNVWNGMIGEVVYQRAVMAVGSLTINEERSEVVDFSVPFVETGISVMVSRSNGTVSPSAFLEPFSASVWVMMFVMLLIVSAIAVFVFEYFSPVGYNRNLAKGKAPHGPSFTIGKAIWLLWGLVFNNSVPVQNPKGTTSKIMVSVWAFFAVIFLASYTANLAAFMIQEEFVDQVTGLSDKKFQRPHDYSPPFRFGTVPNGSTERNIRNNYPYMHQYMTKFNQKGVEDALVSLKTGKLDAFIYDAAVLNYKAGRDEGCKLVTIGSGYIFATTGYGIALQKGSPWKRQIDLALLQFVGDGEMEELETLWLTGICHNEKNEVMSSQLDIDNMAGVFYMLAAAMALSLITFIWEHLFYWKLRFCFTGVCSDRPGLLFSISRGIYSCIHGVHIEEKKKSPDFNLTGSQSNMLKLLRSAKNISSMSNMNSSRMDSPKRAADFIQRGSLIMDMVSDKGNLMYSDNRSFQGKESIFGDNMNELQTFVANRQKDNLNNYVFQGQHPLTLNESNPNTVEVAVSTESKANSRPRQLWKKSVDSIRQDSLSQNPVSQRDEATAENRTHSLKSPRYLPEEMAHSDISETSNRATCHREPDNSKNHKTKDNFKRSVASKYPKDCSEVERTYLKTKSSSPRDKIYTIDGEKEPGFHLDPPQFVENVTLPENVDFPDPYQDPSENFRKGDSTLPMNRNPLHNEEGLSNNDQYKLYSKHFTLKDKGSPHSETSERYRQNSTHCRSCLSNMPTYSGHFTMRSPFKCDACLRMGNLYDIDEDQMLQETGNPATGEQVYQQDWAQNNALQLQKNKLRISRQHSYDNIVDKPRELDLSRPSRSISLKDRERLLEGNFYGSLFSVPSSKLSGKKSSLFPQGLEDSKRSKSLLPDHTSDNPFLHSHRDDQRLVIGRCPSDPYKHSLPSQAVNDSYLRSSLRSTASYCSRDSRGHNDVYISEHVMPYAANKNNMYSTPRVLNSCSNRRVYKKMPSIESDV

Row | SMILES | EC50 (Table 3) [µM] | EC50 (Table 2) [µM] | Max % (Table 2) [%]
1 | Cc1sc2nc(Cn3nc(Cl)cc3C(F)(F)F)cc(=O)n2c1C1CCC1 [compound 189, 7-[[3-chloro-5-(trifluoromethyl)pyrazol-1-yl]methyl]-3-cyclobutyl-2-methyl-thiazolo[3,2-a]pyrimidin-5-one] | 7.45 | – | –
2 | O=c1cc(Cn2nc(C(F)(F)F)cc2Cl)nc2sc(C(F)(F)F)c(-c3ccn[nH]3)n12 [compound 247, 7-[[5-chloro-3-(trifluoromethyl)pyrazol-1-yl]methyl]-3-(1H-pyrazol-5-yl)-2-(trifluoromethyl)thiazolo[3,2-a]pyrimidin-5-one] | 7.7 | – | –
3 | N#CC1CC1c1c(Cl)sc2nc(Cn3nc(C(F)(F)F)cc3Cl)cc(=O)n12 (single isomer, unassigned) [compound 266] | 0.0249 | – | –
4 | CCNC(=O)c1c(OC)sc2nc(Cn3nc(C(F)(F)F)cc3C3CC3)cc(=O)n12 [compound 129, 7-[[5-cyclopropyl-3-(trifluoromethyl)pyrazol-1-yl]methyl]-N-ethyl-2-methoxy-5-oxo-thiazolo[3,2-a]pyrimidine-3-carboxamide] | 0.774 | – | –
5 | O=c1cc(Cn2nc(C(F)(F)F)cc2Cl)nc2scc(C(F)(F)F)n12 [compound 239, 7-[[5-chloro-3-(trifluoromethyl)pyrazol-1-yl]methyl]-3-(trifluoromethyl)thiazolo[3,2-a]pyrimidin-5-one] | 14.2 | – | –
6 | CCN(Cc1cc(=O)n2c(CNCCO)c(C)sc2n1)c1ccc(F)cc1 [Example 10.22, 7-[(N-ethyl-4-fluoro-anilino)methyl]-3-[(2-hydroxyethylamino)methyl]-2-methyl-thiazolo[3,2-a]pyrimidin-5-one] | – | 7.5 | 156
7 | CC#Cc1c(C)sc2nc(CN(CC)c3ccc(F)cc3)cc(=O)n12 [Example 5.52] | – | 1.6 | 58
8 | CCNC(=O)c1csc2nc(COc3ccc(F)cc3)cc(=O)n12 [Example 1.7, N-ethyl-7-(4-fluorophenoxymethyl)-5-oxo-5H-[1,3]thiazolo[3,2-a]pyrimidine-3-carboxamide] | – | 27 | 44.8
9 | CNC(=O)Cc1c(C(F)(F)F)sc2nc(Cn3nc(C4CC4)cc3C(F)(F)F)cc(=O)n12 [compound 79, 2-[7-[[3-cyclopropyl-5-(trifluoromethyl)pyrazol-1-yl]methyl]-5-oxo-2-(trifluoromethyl)thiazolo[3,2-a]pyrimidin-3-yl]-N-methyl-acetamide] | 14.3 | – | –
10 | Cc1sc2nc(Cn3ccc(C(F)(F)F)n3)cc(=O)n2c1C(C)O (stereo not drawn) [Example 18.1, 3-(1-hydroxyethyl)-2-methyl-7-((3-(trifluoromethyl)-1H-pyrazol-1-yl)methyl)-5H-thiazolo[3,2-a]pyrimidin-5-one] | – | – | 94.8
11 | Cc1sc2nc(Cn3nc(C(F)(F)F)cc3Cl)cc(=O)n2c1C(=O)C(F)(F)F [compound 198, 7-[[5-chloro-3-(trifluoromethyl)pyrazol-1-yl]methyl]-2-methyl-3-(2,2,2-trifluoroacetyl)thiazolo[3,2-a]pyrimidin-5-one] | 0.201 | – | –
12 | Cc1sc2nc(Cc3ccc(C(F)(F)F)cc3)cc(=O)n2c1C1CC1CO (stereo not drawn) [Example 20.11, 3-(2-(hydroxymethyl)cyclopropyl)-2-methyl-7-(4-(trifluoromethyl)benzyl)-5H-thiazolo[3,2-a]pyrimidin-5-one] | – | 31.2 | 78.7
13 | CCNC(=O)c1c(C)sc2nc(Cc3cccc(F)c3F)cc(=O)n12 [Example 21.45, 7-(2,3-difluorobenzyl)-N-ethyl-2-methyl-5-oxo-5H-thiazolo[3,2-a]pyrimidine-3-carboxamide] | – | – | 49.1
14 | Cc1sc2nc(CN(C)c3ccc(Cl)cn3)cc(=O)n2c1C1CC1C#N (stereo not drawn) [compound 190, 2-[7-[[(5-chloro-2-pyridyl)-methyl-amino]methyl]-2-methyl-5-oxo-thiazolo[3,2-a]pyrimidin-3-yl]cyclopropanecarbonitrile] | 0.779 | – | –
15 | Cc1sc2nc(Cn3nc(Cl)cc3C(F)(F)F)cc(=O)n2c1-c1cncc(F)c1 [compound 139, 7-[[3-chloro-5-(trifluoromethyl)pyrazol-1-yl]methyl]-3-(5-fluoro-3-pyridyl)-2-methyl-thiazolo[3,2-a]pyrimidin-5-one] | 6.36 | – | –
16 | CCN(C)C(=O)c1c(C)sc2nc(Cc3cccc(C(F)(F)F)c3F)cc(=O)n12 [Example 22.2, N-ethyl-7-(2-fluoro-3-(trifluoromethyl)benzyl)-N,2-dimethyl-5-oxo-5H-thiazolo[3,2-a]pyrimidine-3-carboxamide] | – | – | 41.4
17 | C=C(C)c1c(C)sc2nc(CN(CC)c3ccc(F)cc3)cc(=O)n12 [Example 5.29, 7-[(N-ethyl-4-fluoro-anilino)methyl]-3-isopropenyl-2-methyl-thiazolo[3,2-a]pyrimidin-5-one] | – | 0.445 | 147
18 | CCNC(=O)c1c(OC)sc2nc(Cn3nc(Cl)cc3C(F)(F)F)cc(=O)n12 [compound 127, 7-[[3-chloro-5-(trifluoromethyl)pyrazol-1-yl]methyl]-N-ethyl-2-methoxy-5-oxo-thiazolo[3,2-a]pyrimidine-3-carboxamide] | 4.87 | – | –
19 | CNC(=O)c1c(C2CC2)sc2nc(COc3ccc(F)cc3)cc(=O)n12 [Example 3.3, 2-Cyclopropyl-7-(4-fluorophenoxymethyl)-N-methyl-5-oxo-5H-[1,3]thiazolo[3,2-a]pyrimidine-3-carboxamide] | – | – | 61.8
20 | CCN(Cc1cc(=O)n2c(-c3cscn3)c(C)sc2n1)c1ccc(F)cc1 [Example 5.20, 7-[(N-ethyl-4-fluoro-anilino)methyl]-2-methyl-3-thiazol-4-yl-thiazolo[3,2-a]pyrimidin-5-one] | – | 0.815 | 157
21 | CCNC(=O)c1c(C)sc2nc(Cc3cccc(C)c3F)cc(=O)n12 [Example 21.5, N-ethyl-7-(2-fluoro-3-methylbenzyl)-2-methyl-5-oxo-5H-thiazolo[3,2-a]pyrimidine-3-carboxamide] | – | 18.9 | 124
22 | CCN(Cc1cc(=O)n2c3c(sc2n1)CCOC3)c1ccc(F)cc1 [Example 8.9, 2-[(N-ethyl-4-fluoro-anilino)methyl]-8,9-dihydro-6H-pyrano[3,4]thiazolo[1,4-a]pyrimidin-4-one] | – | 11.1 | 124
23 | CCN(Cc1cc(=O)n2c(-c3cncnc3)c(C3CC3)sc2n1)c1ccc(F)cc1 [Example 5.15, 2-cyclopropyl-7-[(N-ethyl-4-fluoro-anilino)methyl]-3-pyrimidin-5-yl-thiazolo[3,2-a]pyrimidin-5-one] | – | 7 | 144
24 | O=c1cc(Cn2nc(Cl)cc2C(F)(F)F)nc2scc(Cl)n12 [compound 236, 3-chloro-7-[[3-chloro-5-(trifluoromethyl)pyrazol-1-yl]methyl]thiazolo[3,2-a]pyrimidin-5-one] | 44.5 | – | –
25 | Cc1sc2nc(CN(C)c3ccc(Cl)cn3)cc(=O)n2c1C1CC1CO (stereo not drawn) [compound 163, 7-[[(5-chloro-2-pyridyl)-methyl-amino]methyl]-3-[2-(hydroxymethyl)cyclopropyl]-2-methyl-thiazolo[3,2-a]pyrimidin-5-one] | 0.359 | – | –
26 | CCN(Cc1cc(=O)n2c(N(C)C)c(C)sc2n1)c1ccc(F)cc1 [Example 6.2, 3-(dimethylamino)-7-((ethyl(4-fluorophenyl)amino)methyl)-2-methyl-5H-thiazolo[3,2-a]pyrimidin-5-one] | – | 5 | 121
